# Columns and labels:
# [1] = target: T1, cGMP-dependent protein kinase 2 (Homo sapiens) (UniProt Q13237); experiment: Selectivity interaction (KinomeScan (DiscoverX)) EUB0000607a PRKG2; conditions: at 10 µM
# T1 sequence (whole entry): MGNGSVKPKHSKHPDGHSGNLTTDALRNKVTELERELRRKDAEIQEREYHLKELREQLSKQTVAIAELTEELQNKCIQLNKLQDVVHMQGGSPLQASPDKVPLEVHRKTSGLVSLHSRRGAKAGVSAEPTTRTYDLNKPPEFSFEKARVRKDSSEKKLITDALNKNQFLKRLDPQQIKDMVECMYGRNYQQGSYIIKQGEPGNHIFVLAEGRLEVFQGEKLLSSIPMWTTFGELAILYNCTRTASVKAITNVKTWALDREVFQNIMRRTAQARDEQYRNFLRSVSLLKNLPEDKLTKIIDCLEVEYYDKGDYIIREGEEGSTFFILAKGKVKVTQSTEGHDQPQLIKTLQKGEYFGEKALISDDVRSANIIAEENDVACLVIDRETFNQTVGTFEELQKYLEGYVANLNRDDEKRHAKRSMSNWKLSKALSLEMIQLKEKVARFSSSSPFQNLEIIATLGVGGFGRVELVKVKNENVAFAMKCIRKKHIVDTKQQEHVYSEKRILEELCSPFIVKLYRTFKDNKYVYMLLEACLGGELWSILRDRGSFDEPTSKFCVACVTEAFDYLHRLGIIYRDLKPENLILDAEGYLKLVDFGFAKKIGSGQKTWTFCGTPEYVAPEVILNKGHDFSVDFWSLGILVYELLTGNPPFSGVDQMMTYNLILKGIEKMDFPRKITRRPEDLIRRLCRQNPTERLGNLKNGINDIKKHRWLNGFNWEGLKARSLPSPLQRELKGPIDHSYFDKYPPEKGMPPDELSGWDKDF
# [2] = target: T2, Tyrosine-protein kinase receptor TYRO3 (Homo sapiens) (UniProt Q06418); experiment: Selectivity interaction (KinomeScan (DiscoverX)) EUB0000045b TYRO3
# T2 sequence (whole entry): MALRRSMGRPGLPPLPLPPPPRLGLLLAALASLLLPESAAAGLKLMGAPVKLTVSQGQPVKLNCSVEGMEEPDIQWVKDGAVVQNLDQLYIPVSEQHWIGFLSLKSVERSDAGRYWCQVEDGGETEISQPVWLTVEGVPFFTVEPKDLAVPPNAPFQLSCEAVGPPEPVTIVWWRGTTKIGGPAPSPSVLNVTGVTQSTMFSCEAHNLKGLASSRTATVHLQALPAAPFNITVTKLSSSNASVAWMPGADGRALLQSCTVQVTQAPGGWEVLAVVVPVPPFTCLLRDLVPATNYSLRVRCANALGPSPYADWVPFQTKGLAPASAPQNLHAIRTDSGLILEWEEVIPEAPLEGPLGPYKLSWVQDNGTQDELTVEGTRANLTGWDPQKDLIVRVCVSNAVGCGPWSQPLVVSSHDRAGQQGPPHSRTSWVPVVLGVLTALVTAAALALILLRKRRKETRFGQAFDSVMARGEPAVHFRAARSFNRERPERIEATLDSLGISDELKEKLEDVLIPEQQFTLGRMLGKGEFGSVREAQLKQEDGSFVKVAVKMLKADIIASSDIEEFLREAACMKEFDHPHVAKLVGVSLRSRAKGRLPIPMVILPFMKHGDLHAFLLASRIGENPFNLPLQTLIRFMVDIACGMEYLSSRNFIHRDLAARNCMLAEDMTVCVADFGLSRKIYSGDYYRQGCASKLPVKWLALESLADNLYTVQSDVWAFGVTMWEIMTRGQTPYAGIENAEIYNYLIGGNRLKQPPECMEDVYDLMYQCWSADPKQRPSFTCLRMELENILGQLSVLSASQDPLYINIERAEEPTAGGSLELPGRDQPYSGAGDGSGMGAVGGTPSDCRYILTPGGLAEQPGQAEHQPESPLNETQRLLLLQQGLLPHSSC
# [3] = target: T3, Mitogen-activated protein kinase kinase kinase 7 (Homo sapiens) (UniProt O43318); experiment: Selectivity interaction (ActivX KiNativ screen (ex vivo kinase selectivity in human PBMCs)) EUB0001619a MAP3K7; type: cell-based; conditions: PBMC, at 1 µM
# T3 sequence (whole entry): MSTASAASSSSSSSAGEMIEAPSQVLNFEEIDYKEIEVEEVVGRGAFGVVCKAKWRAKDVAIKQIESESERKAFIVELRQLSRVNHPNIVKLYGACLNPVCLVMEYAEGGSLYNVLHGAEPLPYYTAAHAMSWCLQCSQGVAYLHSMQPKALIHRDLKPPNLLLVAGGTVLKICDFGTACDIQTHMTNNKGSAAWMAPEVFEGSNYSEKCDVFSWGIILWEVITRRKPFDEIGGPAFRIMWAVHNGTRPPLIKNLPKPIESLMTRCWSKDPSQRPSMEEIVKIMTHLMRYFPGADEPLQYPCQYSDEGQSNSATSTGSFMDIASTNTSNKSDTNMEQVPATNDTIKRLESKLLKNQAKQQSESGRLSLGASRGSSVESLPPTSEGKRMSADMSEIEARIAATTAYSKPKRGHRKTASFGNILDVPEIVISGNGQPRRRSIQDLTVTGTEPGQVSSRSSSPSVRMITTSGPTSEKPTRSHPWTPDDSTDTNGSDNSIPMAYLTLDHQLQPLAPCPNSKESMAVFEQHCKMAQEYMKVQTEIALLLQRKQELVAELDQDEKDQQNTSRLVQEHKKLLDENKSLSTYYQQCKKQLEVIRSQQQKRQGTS
smiles,measurement,setting,value
CNC(=O)Nc1ccc(-c2nc(N3CC4CCC(C3)O4)c3cnn(C4CCC5(CC4)OCCO5)c3n2)cc1,% of control,[1],88%
C=CC(=O)Nc1cc(-n2c(=O)ccc3cnc4ccc(-c5ccc(NS(C)(=O)=O)cc5)cc4c32)ccc1C,% of control,[2]; at 1 µM,100%
same,% of control,[2]; at 10 µM,100%
N#Cc1cccc(-c2c[nH]c3ncnc(N4CCOCC4)c23)c1,% of inhibition,[3],21%

# Source: ChEMBL document CHEMBL5465560, “Selectivity Literature for EUbOPEN Chemogenomic Library” (2024)
